# Experimental data published in patent publication US20210254272A1, “TEXTILES HAVING ANTIMICROBIAL PROPERTIES” (Livinguard AG, priority 2015, published 2021).
# Test system: E. coli (ATCC 25922)
# Experiment: AATCC Test Method 100-2012 antibacterial activity of the treated textile, after 25 washes and 12 abrasion cycles, contact time 60 minutes
# Type: cell-based
# Conditions: for Performance Test-Log reduction of antimicrobial performance: pad process, 2 min
# Protocol: The antibacterial activity of the textile was tested in accordance with AATCC Test Method 100-2012. Prior to the test, the fabric was cut into coupons of 2×4 inches and washed separately 25 times, and exposed to 12 abrasion cycles, as per US EPA protocol 90072PA4 (described further below). The tests were made against E. coli (ATCC 25922). Contact time was 60 minutes, after inoculating with 10^8 CFU per coupon.
substance,measurement,setting,value
Silver,Performance Test-Log reduction of antimicrobial performance,"single agent 5 gm/lit, curing 180° C.",1.11 Log
same,Performance Test-Log reduction of antimicrobial performance,"single agent 10 gm/lit, curing 120° C.",0.37 Log
same,Performance Test-Log reduction of antimicrobial performance,"single agent 10 gm/lit, curing 140° C.",0.48 Log
same,Performance Test-Log reduction of antimicrobial performance,"single agent 10 gm/lit, curing 150° C.",0.58 Log
same,Performance Test-Log reduction of antimicrobial performance,"single agent 10 gm/lit, curing 160° C.",0.95 Log
same,Performance Test-Log reduction of antimicrobial performance,"single agent 10 gm/lit, curing 180° C.",2.11 Log
same,Log reduction of antimicrobial performance,"pure cotton fabric, exhaust 80° C., 60 min, dosage 0.1% o.w.f",0.55 Log
same,Log reduction of antimicrobial performance,"pure cotton fabric, exhaust 80° C., 60 min, dosage 0.2% o.w.f",1.35 Log
same,Log reduction of antimicrobial performance,"pure cotton fabric, exhaust 80° C., 60 min, dosage 0.5% o.w.f",1.67 Log
same,Log reduction of antimicrobial performance,"pure cotton fabric, exhaust 80° C., 60 min, dosage 0.8% o.w.f",1.84 Log
same,Log reduction of antimicrobial performance,"pure cotton fabric, exhaust 80° C., 60 min, dosage 1.0% o.w.f",2.87 Log
same,Log reduction of antimicrobial performance,"pure cotton, exhaust 80° C., 1% o.w.f, 60 min, curing 180° C., curing dwell time 0.5 min",0.4 Log
same,Log reduction of antimicrobial performance,"pure cotton, exhaust 80° C., 1% o.w.f, 60 min, curing 180° C., curing dwell time 1.0 min",0.6 Log
same,Log reduction of antimicrobial performance,"pure cotton, exhaust 80° C., 1% o.w.f, 60 min, curing 180° C., curing dwell time 1.5 min",1.4 Log
same,Log reduction of antimicrobial performance,"pure cotton, exhaust 80° C., 1% o.w.f, 60 min, curing 180° C., curing dwell time 2.0 min",2.9 Log
same,Log reduction of antimicrobial performance,"pure cotton, exhaust 80° C., 1% o.w.f, 60 min, curing 180° C., curing dwell time 2.5 min",2.2 Log
same,Log reduction of antimicrobial performance,"pure cotton, exhaust 80° C., 1% o.w.f, 60 min, curing 180° C., curing dwell time 3.0 min",1.2 Log
same,Log reduction of antimicrobial performance,"pure polyester fabric, exhaust 80° C., 60 min, curing 180° C., curing dwell time 0.5 min",0.5 Log
same,Log reduction of antimicrobial performance,"pure polyester fabric, exhaust 80° C., 60 min, curing 180° C., curing dwell time 1.0 min",0.9 Log
same,Log reduction of antimicrobial performance,"pure polyester fabric, exhaust 80° C., 60 min, curing 180° C., curing dwell time 1.5 min",1.4 Log
same,Log reduction of antimicrobial performance,"pure polyester fabric, exhaust 80° C., 60 min, curing 180° C., curing dwell time 2.0 min",2.68 Log
same,Log reduction of antimicrobial performance,"pure polyester fabric, exhaust 80° C., 60 min, curing 180° C., curing dwell time 2.5 min",2.21 Log
same,Log reduction of antimicrobial performance,"pure polyester fabric, exhaust 80° C., 60 min, curing 180° C., curing dwell time 3.0 min",1.2 Log
same,Log reduction of antimicrobial performance,"pure polyester fabric, exhaust 80° C., 60 min, dosage 0.1% o.w.f",0.55 Log
same,Log reduction of antimicrobial performance,"pure polyester fabric, exhaust 80° C., 60 min, dosage 0.2% o.w.f",1.43 Log
same,Log reduction of antimicrobial performance,"pure polyester fabric, exhaust 80° C., 60 min, dosage 0.5% o.w.f",1.78 Log
same,Log reduction of antimicrobial performance,"pure polyester fabric, exhaust 80° C., 60 min, dosage 0.8% o.w.f",1.83 Log
same,Log reduction of antimicrobial performance,"pure polyester fabric, exhaust 80° C., 60 min, dosage 1.0% o.w.f",2.67 Log
same,Log reduction of antimicrobial performance,"solution dosage 0.10% o.w.f, exhaust temperature 40° C., process time 60 min",0 Log
same,Log reduction of antimicrobial performance,"solution dosage 0.10% o.w.f, exhaust temperature 60° C., process time 60 min",0 Log
same,Log reduction of antimicrobial performance,"solution dosage 0.10% o.w.f, exhaust temperature 65° C., process time 60 min",0 Log
same,Log reduction of antimicrobial performance,"solution dosage 0.10% o.w.f, exhaust temperature 70° C., process time 60 min",0 Log
same,Log reduction of antimicrobial performance,"solution dosage 0.10% o.w.f, exhaust temperature 75° C., process time 60 min",0.21 Log
same,Log reduction of antimicrobial performance,"solution dosage 0.10% o.w.f, exhaust temperature 80° C., process time 60 min",0.53 Log
same,Log reduction of antimicrobial performance,"solution dosage 0.10% o.w.f, exhaust temperature 85° C., process time 60 min",0.67 Log
same,Log reduction of antimicrobial performance,"solution dosage 0.10% o.w.f, exhaust temperature 90° C., process time 60 min",0.68 Log
same,Log reduction of antimicrobial performance,"solution dosage 0.10% o.w.f, exhaust temperature 95° C., process time 60 min",0.68 Log
same,Log reduction of antimicrobial performance,"solution dosage 0.20% o.w.f, exhaust temperature 40° C., process time 60 min",0 Log
same,Log reduction of antimicrobial performance,"solution dosage 0.20% o.w.f, exhaust temperature 60° C., process time 60 min",0.11 Log
same,Log reduction of antimicrobial performance,"solution dosage 0.20% o.w.f, exhaust temperature 65° C., process time 60 min",0.12 Log
same,Log reduction of antimicrobial performance,"solution dosage 0.20% o.w.f, exhaust temperature 70° C., process time 60 min",0.17 Log
same,Log reduction of antimicrobial performance,"solution dosage 0.20% o.w.f, exhaust temperature 75° C., process time 60 min",0.87 Log
same,Log reduction of antimicrobial performance,"solution dosage 0.20% o.w.f, exhaust temperature 80° C., process time 60 min",1.32 Log
same,Log reduction of antimicrobial performance,"solution dosage 0.20% o.w.f, exhaust temperature 85° C., process time 60 min",1.45 Log
same,Log reduction of antimicrobial performance,"solution dosage 0.20% o.w.f, exhaust temperature 90° C., process time 60 min",1.46 Log
same,Log reduction of antimicrobial performance,"solution dosage 0.20% o.w.f, exhaust temperature 95° C., process time 60 min",1.46 Log
same,Log reduction of antimicrobial performance,"solution dosage 0.50% o.w.f, exhaust temperature 40° C., process time 60 min",0 Log
same,Log reduction of antimicrobial performance,"solution dosage 0.50% o.w.f, exhaust temperature 60° C., process time 60 min",0.23 Log
same,Log reduction of antimicrobial performance,"solution dosage 0.50% o.w.f, exhaust temperature 65° C., process time 60 min",0.13 Log
same,Log reduction of antimicrobial performance,"solution dosage 0.50% o.w.f, exhaust temperature 70° C., process time 60 min",0.18 Log
same,Log reduction of antimicrobial performance,"solution dosage 0.50% o.w.f, exhaust temperature 75° C., process time 60 min",1.05 Log
same,Log reduction of antimicrobial performance,"solution dosage 0.50% o.w.f, exhaust temperature 80° C., process time 60 min",1.56 Log
same,Log reduction of antimicrobial performance,"solution dosage 0.50% o.w.f, exhaust temperature 85° C., process time 60 min",1.76 Log
same,Log reduction of antimicrobial performance,"solution dosage 0.50% o.w.f, exhaust temperature 90° C., process time 60 min",1.78 Log
same,Log reduction of antimicrobial performance,"solution dosage 0.50% o.w.f, exhaust temperature 95° C., process time 60 min",1.78 Log
same,Log reduction of antimicrobial performance,"solution dosage 0.80% o.w.f, exhaust temperature 40° C., process time 60 min",0 Log
same,Log reduction of antimicrobial performance,"solution dosage 0.80% o.w.f, exhaust temperature 60° C., process time 60 min",0.36 Log
same,Log reduction of antimicrobial performance,"solution dosage 0.80% o.w.f, exhaust temperature 65° C., process time 60 min",0.37 Log
same,Log reduction of antimicrobial performance,"solution dosage 0.80% o.w.f, exhaust temperature 70° C., process time 60 min",0.42 Log
same,Log reduction of antimicrobial performance,"solution dosage 0.80% o.w.f, exhaust temperature 75° C., process time 60 min",1.13 Log
same,Log reduction of antimicrobial performance,"solution dosage 0.80% o.w.f, exhaust temperature 80° C., process time 60 min",1.84 Log
same,Log reduction of antimicrobial performance,"solution dosage 0.80% o.w.f, exhaust temperature 85° C., process time 60 min",1.94 Log
same,Log reduction of antimicrobial performance,"solution dosage 0.80% o.w.f, exhaust temperature 90° C., process time 60 min",1.95 Log
same,Log reduction of antimicrobial performance,"solution dosage 0.80% o.w.f, exhaust temperature 95° C., process time 60 min",1.95 Log
same,Log reduction of antimicrobial performance,"solution dosage 1.00% o.w.f, exhaust temperature 40° C., process time 60 min",0 Log
same,Log reduction of antimicrobial performance,"solution dosage 1.00% o.w.f, exhaust temperature 60° C., process time 60 min",0.41 Log
same,Log reduction of antimicrobial performance,"solution dosage 1.00% o.w.f, exhaust temperature 65° C., process time 60 min",0.42 Log
same,Log reduction of antimicrobial performance,"solution dosage 1.00% o.w.f, exhaust temperature 70° C., process time 60 min",0.52 Log
same,Log reduction of antimicrobial performance,"solution dosage 1.00% o.w.f, exhaust temperature 75° C., process time 60 min",1.23 Log
same,Log reduction of antimicrobial performance,"solution dosage 1.00% o.w.f, exhaust temperature 80° C., process time 60 min",2.78 Log
same,Log reduction of antimicrobial performance,"solution dosage 1.00% o.w.f, exhaust temperature 85° C., process time 60 min",2.85 Log
same,Log reduction of antimicrobial performance,"solution dosage 1.00% o.w.f, exhaust temperature 90° C., process time 60 min",2.86 Log
same,Log reduction of antimicrobial performance,"solution dosage 1.00% o.w.f, exhaust temperature 95° C., process time 60 min",2.86 Log
